{"source": "patent US8247211B2", "about": "“Glycopeptide antibiotics” (American Cyanamid Company, priority 2001, dated 2012)", "assay_in_all_cases": "In vitro antibacterial evaluation: minimum inhibitory concentration (MIC), broth dilution method", "format_in_all_cases": "cell-based", "key": {"Escherichia coli": {"test_system": "Escherichia coli", "procedure": "(§1) The minimum inhibitory concentration (MIC), the lowest concentration of the antibiotic which inhibits growth of the test organism, is determined by the broth dilution method using Muller-Hinton II […] (Baltimore Biological Laboratories) following the recommendations of the National Committee for Clinical Laboratory Standards [Methods for dilution antimicrobial susceptibility tests for bacteria that grow aerobically, approved standard M7-A2, National Committee for Clinical Laboratory Standards, Villanova, Pa].\n(§2) An inoculum level of 5×10^5 CFU/mL, and a range of antibiotic concentrations (64-0.06 μg/mL) is used. […] The test organisms include a spectrum of Gram-positive bacteria comprised of Staphylococcus sp., Streptococcus sp. and Enterococcus sp. These organisms include recent clinical isolates that are resistant to methicillin, penicillin and/or vancomycin."}, "Staphylococcus sp.": {"test_system": "Staphylococcus sp.", "settings": "for MIC Coagulase Negative Staphylococcus (GC 4537): strain GC 4537; for MIC Coagulase Negative Staphylococcus (GC 4538): strain GC 4538; for MIC Coagulase Negative Staphylococcus (GC 4547): strain GC 4547", "procedure": "as §1, §2"}, "Enterococcus sp.": {"test_system": "Enterococcus sp.", "procedure": "as §1, §2"}, "[1]": {"settings": "broth dilution, 18 hours at 35° C."}, "[2]": {"settings": "strain SMITH GC 4536, broth dilution, 18 hours at 35° C."}, "[3]": {"settings": "broth dilution, 5×10^5 CFU/mL, 18 hours at 35° C."}}}
{"smiles": "CCCCCC(=O)OCC1OC(Oc2ccc(CC3NC(=O)C(C(C)c4ccccc4)NC(=O)CNC(=O)C(CO)NC(=O)C(C(O)C4CNC(=N)N4C4OC(CO)C(O)C(O)C4O)NC(=O)C(C(O)C4CNC(=N)N4)NC3=O)cc2)C(O)C(O)C1OC1OC(CO)C(O)C(O)C1O", "note": "(stereo not drawn) [Example 95a, Cyclo[glycyl-β-methylphenylalanyl-O-(6-O-hexanoyl-4-O-hexopyranosylhexopyranosyl)-tyrosyl-3-(2-iminoimidazolidin-4-yl)seryl-3-(3-hexopyranosyl-2-iminoimidazolidin-4-yl)-serylseryl]]", "values": [{"measurement": "MIC Escherichia coli (GC 4559)", "setting": "Escherichia coli; strain GC 4559", "result": ">64", "unit": "µg/mL"}, {"measurement": "MIC Escherichia coli (GC 4560)", "setting": "Escherichia coli; strain GC 4560", "result": 2, "unit": "µg/mL"}, {"measurement": "MIC Staphylococcus aureus (ATCC 29213)", "setting": "Staphylococcus sp.; [1]", "result": 4, "unit": "µg/mL"}, {"measurement": "MIC Staphylococcus aureus (GC 1131)", "setting": "Staphylococcus sp.; [1]", "result": 4, "unit": "µg/mL"}, {"measurement": "MIC Staphylococcus aureus (GC 4535)", "setting": "Staphylococcus sp.; [1]", "result": 8, "unit": "µg/mL"}, {"measurement": "MIC Staphylococcus aureus SMITH (GC 4536)", "setting": "Staphylococcus sp.; [1]", "result": 4, "unit": "µg/mL"}, {"measurement": "MIC Coagulase Negative Staphylococcus (GC 4537)", "setting": "Staphylococcus sp.", "result": 8, "unit": "µg/mL"}, {"measurement": "MIC Coagulase Negative Staphylococcus (GC 4538)", "setting": "Staphylococcus sp.", "result": 4, "unit": "µg/mL"}, {"measurement": "MIC Coagulase Negative Staphylococcus (GC 4547)", "setting": "Staphylococcus sp.", "result": 4, "unit": "µg/mL"}, {"measurement": "MIC Staphylococcus aureus-SMITH (GC 4536)", "setting": "Staphylococcus sp.; [2]", "result": 4, "unit": "µg/mL"}, {"measurement": "MIC Enterococcus faecalis (GC 2242)", "setting": "Enterococcus sp.; Enterococcus faecalis (GC 2242), broth dilution, 18 hours at 35° C.", "result": 16, "unit": "µg/mL"}, {"measurement": "MIC Enterococcus faecalis (ATCC 29212)", "setting": "Enterococcus sp.; strain ATCC 29212", "result": 32, "unit": "µg/mL"}, {"measurement": "MIC Enterococcus faecalis (GC 2242)", "setting": "Enterococcus sp.; strain GC 2242", "result": 16, "unit": "µg/mL"}, {"measurement": "MIC Enterococcus faecalis (GC 4552)", "setting": "Enterococcus sp.; strain GC 4552", "result": 32, "unit": "µg/mL"}]}
{"smiles": "CC(c1ccccc1)C1NC(=O)CNC(=O)C(CO)NC(=O)C(C(O)C2CNC(=N)N2C2OC(CO)C(O)C(O)C2O)NC(=O)C(C(O)C2CNC(=N)N2)NC(=O)C(Cc2ccc(OC3OC(COC(=O)CCC4CCCC4)C(OC4OC(CO)C(O)C(O)C4O)C(O)C3O)cc2)NC1=O", "note": "(stereo not drawn) [Example 100b, Cyclo[glycyl-β-methylphenylalanyl-O-[6-O-(3-cyclopentylpropanoyl)-4-O-hexopyranosyl-hexopyranosyl]tyrosyl-3-(2-iminoimidazolidin-4-yl)seryl-3-(3-hexopyranosyl-2-iminoimidazolidin-4-yl)serylseryl]]", "values": [{"measurement": "MIC Escherichia coli (GC 4560)", "setting": "Escherichia coli; 5×10^5 CFU/mL, 18 hours at 35° C.", "result": 0.5, "unit": "µg/mL"}, {"measurement": "MIC Staphylococcus aureus (ATCC 29213)", "setting": "Staphylococcus sp.; strain ATCC 29213", "result": 2, "unit": "µg/mL"}, {"measurement": "MIC Staphylococcus aureus (GC 1131)", "setting": "Staphylococcus sp.; strain GC 1131", "result": 2, "unit": "µg/mL"}, {"measurement": "MIC Staphylococcus aureus (GC 4535)", "setting": "Staphylococcus sp.; strain GC 4535", "result": 2, "unit": "µg/mL"}, {"measurement": "MIC Staphylococcus aureus-SMITH (GC 4536)", "setting": "Staphylococcus sp.; strain GC 4536", "result": 2, "unit": "µg/mL"}, {"measurement": "MIC Coagulase Negative Staphylococcus (GC 4537)", "setting": "Staphylococcus sp.", "result": 2, "unit": "µg/mL"}, {"measurement": "MIC Coagulase Negative Staphylococcus (GC 4537)", "setting": "Staphylococcus sp.; [1]", "result": 2, "unit": "µg/mL"}, {"measurement": "MIC Coagulase Negative Staphylococcus (GC 4538)", "setting": "Staphylococcus sp.", "result": 1, "unit": "µg/mL"}, {"measurement": "MIC Coagulase Negative Staphylococcus (GC 4538)", "setting": "Staphylococcus sp.; [1]", "result": 1, "unit": "µg/mL"}, {"measurement": "MIC Coagulase Negative Staphylococcus (GC 4547)", "setting": "Staphylococcus sp.", "result": 1, "unit": "µg/mL"}, {"measurement": "MIC Coagulase Negative Staphylococcus (GC 4547)", "setting": "Staphylococcus sp.; [1]", "result": 1, "unit": "µg/mL"}, {"measurement": "MIC Staphylococcus aureus-SMITH (GC 4536)", "setting": "Staphylococcus sp.; [2]", "result": 2, "unit": "µg/mL"}, {"measurement": "MIC Enterococccus faecalis (ATCC 29212)", "setting": "Enterococcus sp.; [3]", "result": 8, "unit": "µg/mL"}, {"measurement": "MIC Enterococccus faecalis (GC 4552)", "setting": "Enterococcus sp.; [3]", "result": 8, "unit": "µg/mL"}, {"measurement": "MIC Enterococcus faecalis (GC 2242)", "setting": "Enterococcus sp.; [3]", "result": 8, "unit": "µg/mL"}]}
{"smiles": "CC(c1ccccc1)C1NC(=O)CNC(=O)C(CO)NC(=O)C(C(O)C2CNC(=N)N2C2OC(CO)C(O)C3OC(C)(C)OC32)NC(=O)C(C(O)C2CNC(=N)N2)NC(=O)C(Cc2ccc(OC3OC(CO)C(OC4OC5COC(C)(C)OC5C5OC(C)(C)OC45)C4OC(C)(C)OC34)cc2)NC1=O", "note": "(stereo not drawn) [Example 229b, Cyclo[glycyl-β-methylphenylalanyl-O-[2,3-O-isopropylidene-4-O-(2,3:4,6-di-O-isopropylidene-hexopyranosyl)hexopyranosyl]tyrosyl-3-(2-iminoimidazolidin-4-yl)seryl-3-[2-imino-(2,3-O-isopropylidenehexopyranosyl)imidazolidin-4-yl]serylseryl]]", "values": [{"measurement": "MIC Escherichia coli (GC 4560)", "setting": "Escherichia coli; Escherichia coli (GC 4560), 18 hours at 35° C.", "result": 32, "unit": "µg/mL"}, {"measurement": "MIC Enterococcus avium (GC 4558)", "setting": "Enterococcus sp.; Enterococcus avium (GC 4558), 18 hours at 35° C.", "result": 64, "unit": "µg/mL"}, {"measurement": "MIC Enterococcus avium (GC 4558)", "setting": "Enterococcus sp.; broth dilution, inoculum 5×10^5 CFU/mL, 18 hours at 35° C.", "result": 64, "unit": "µg/mL"}]}
